Laboratory results: the supplement of paper PMC12076712

Columns and labels:
Assay in all cases: pIC50, kinobeads binding competition
Conditions in all cases: cell material: Jurkat lysate
TXK = target: T1, TXK (UniProt P42681)
T1 sequence (whole entry): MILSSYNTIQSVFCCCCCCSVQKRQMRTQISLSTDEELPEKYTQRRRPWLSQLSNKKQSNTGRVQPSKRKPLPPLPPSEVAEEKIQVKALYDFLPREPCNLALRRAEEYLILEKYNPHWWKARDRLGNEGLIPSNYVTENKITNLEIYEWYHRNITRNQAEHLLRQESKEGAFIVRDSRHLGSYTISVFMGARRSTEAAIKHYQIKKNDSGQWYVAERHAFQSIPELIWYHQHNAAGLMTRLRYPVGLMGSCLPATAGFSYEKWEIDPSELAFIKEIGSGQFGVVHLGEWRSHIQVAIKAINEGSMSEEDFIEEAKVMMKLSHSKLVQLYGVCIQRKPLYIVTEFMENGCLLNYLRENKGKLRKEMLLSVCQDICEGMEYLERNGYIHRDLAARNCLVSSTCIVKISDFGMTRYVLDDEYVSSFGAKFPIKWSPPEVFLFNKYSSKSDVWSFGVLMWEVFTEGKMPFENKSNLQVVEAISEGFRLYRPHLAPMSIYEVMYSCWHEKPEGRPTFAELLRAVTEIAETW

TGFBR1 = target: T2, TGFBR1 (UniProt P36897)
T2 sequence (whole entry): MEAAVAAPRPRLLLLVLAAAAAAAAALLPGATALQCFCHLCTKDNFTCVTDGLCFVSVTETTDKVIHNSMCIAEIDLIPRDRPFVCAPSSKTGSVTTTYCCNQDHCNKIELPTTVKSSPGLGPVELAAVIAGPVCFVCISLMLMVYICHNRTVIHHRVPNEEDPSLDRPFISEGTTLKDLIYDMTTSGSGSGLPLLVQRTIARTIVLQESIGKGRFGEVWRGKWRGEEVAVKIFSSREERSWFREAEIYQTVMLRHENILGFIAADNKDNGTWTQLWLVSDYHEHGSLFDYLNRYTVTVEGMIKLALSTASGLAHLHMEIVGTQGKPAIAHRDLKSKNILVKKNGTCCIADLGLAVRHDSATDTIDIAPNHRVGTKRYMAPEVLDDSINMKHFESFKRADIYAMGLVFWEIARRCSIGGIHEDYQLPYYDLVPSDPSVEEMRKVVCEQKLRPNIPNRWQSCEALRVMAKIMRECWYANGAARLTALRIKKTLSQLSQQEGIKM

EPHB2 = target: T3, EPHB2 (UniProt P29323)
T3 sequence (whole entry): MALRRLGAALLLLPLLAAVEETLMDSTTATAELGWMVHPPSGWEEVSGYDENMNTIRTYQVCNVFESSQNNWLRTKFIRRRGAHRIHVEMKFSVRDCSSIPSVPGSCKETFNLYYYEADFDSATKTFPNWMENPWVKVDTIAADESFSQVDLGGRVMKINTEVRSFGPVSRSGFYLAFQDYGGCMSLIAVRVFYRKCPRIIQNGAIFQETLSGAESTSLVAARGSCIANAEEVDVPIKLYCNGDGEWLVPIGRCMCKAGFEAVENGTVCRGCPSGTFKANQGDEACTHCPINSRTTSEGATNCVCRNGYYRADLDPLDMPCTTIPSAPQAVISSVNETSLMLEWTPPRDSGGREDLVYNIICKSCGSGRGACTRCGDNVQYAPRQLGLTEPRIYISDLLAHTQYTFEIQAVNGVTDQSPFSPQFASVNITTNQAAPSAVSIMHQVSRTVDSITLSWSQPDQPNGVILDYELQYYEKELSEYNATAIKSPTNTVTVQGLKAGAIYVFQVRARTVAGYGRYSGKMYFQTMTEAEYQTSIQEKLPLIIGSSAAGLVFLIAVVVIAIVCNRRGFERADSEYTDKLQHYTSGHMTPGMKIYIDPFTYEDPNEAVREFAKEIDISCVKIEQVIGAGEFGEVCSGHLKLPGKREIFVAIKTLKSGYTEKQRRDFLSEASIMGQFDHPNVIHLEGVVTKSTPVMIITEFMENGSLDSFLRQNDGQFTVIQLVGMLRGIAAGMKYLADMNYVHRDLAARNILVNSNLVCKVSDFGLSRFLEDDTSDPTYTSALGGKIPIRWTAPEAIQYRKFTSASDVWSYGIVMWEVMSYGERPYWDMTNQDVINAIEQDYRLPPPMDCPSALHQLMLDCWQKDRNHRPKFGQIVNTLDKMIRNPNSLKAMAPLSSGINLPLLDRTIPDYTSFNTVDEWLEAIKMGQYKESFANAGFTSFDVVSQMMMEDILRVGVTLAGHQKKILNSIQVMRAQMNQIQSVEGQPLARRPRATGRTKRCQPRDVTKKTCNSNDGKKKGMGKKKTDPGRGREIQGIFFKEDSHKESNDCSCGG

UniProt P78527 = target: UniProt P78527
Sequence of UniProt P78527 (P78527 whole entry): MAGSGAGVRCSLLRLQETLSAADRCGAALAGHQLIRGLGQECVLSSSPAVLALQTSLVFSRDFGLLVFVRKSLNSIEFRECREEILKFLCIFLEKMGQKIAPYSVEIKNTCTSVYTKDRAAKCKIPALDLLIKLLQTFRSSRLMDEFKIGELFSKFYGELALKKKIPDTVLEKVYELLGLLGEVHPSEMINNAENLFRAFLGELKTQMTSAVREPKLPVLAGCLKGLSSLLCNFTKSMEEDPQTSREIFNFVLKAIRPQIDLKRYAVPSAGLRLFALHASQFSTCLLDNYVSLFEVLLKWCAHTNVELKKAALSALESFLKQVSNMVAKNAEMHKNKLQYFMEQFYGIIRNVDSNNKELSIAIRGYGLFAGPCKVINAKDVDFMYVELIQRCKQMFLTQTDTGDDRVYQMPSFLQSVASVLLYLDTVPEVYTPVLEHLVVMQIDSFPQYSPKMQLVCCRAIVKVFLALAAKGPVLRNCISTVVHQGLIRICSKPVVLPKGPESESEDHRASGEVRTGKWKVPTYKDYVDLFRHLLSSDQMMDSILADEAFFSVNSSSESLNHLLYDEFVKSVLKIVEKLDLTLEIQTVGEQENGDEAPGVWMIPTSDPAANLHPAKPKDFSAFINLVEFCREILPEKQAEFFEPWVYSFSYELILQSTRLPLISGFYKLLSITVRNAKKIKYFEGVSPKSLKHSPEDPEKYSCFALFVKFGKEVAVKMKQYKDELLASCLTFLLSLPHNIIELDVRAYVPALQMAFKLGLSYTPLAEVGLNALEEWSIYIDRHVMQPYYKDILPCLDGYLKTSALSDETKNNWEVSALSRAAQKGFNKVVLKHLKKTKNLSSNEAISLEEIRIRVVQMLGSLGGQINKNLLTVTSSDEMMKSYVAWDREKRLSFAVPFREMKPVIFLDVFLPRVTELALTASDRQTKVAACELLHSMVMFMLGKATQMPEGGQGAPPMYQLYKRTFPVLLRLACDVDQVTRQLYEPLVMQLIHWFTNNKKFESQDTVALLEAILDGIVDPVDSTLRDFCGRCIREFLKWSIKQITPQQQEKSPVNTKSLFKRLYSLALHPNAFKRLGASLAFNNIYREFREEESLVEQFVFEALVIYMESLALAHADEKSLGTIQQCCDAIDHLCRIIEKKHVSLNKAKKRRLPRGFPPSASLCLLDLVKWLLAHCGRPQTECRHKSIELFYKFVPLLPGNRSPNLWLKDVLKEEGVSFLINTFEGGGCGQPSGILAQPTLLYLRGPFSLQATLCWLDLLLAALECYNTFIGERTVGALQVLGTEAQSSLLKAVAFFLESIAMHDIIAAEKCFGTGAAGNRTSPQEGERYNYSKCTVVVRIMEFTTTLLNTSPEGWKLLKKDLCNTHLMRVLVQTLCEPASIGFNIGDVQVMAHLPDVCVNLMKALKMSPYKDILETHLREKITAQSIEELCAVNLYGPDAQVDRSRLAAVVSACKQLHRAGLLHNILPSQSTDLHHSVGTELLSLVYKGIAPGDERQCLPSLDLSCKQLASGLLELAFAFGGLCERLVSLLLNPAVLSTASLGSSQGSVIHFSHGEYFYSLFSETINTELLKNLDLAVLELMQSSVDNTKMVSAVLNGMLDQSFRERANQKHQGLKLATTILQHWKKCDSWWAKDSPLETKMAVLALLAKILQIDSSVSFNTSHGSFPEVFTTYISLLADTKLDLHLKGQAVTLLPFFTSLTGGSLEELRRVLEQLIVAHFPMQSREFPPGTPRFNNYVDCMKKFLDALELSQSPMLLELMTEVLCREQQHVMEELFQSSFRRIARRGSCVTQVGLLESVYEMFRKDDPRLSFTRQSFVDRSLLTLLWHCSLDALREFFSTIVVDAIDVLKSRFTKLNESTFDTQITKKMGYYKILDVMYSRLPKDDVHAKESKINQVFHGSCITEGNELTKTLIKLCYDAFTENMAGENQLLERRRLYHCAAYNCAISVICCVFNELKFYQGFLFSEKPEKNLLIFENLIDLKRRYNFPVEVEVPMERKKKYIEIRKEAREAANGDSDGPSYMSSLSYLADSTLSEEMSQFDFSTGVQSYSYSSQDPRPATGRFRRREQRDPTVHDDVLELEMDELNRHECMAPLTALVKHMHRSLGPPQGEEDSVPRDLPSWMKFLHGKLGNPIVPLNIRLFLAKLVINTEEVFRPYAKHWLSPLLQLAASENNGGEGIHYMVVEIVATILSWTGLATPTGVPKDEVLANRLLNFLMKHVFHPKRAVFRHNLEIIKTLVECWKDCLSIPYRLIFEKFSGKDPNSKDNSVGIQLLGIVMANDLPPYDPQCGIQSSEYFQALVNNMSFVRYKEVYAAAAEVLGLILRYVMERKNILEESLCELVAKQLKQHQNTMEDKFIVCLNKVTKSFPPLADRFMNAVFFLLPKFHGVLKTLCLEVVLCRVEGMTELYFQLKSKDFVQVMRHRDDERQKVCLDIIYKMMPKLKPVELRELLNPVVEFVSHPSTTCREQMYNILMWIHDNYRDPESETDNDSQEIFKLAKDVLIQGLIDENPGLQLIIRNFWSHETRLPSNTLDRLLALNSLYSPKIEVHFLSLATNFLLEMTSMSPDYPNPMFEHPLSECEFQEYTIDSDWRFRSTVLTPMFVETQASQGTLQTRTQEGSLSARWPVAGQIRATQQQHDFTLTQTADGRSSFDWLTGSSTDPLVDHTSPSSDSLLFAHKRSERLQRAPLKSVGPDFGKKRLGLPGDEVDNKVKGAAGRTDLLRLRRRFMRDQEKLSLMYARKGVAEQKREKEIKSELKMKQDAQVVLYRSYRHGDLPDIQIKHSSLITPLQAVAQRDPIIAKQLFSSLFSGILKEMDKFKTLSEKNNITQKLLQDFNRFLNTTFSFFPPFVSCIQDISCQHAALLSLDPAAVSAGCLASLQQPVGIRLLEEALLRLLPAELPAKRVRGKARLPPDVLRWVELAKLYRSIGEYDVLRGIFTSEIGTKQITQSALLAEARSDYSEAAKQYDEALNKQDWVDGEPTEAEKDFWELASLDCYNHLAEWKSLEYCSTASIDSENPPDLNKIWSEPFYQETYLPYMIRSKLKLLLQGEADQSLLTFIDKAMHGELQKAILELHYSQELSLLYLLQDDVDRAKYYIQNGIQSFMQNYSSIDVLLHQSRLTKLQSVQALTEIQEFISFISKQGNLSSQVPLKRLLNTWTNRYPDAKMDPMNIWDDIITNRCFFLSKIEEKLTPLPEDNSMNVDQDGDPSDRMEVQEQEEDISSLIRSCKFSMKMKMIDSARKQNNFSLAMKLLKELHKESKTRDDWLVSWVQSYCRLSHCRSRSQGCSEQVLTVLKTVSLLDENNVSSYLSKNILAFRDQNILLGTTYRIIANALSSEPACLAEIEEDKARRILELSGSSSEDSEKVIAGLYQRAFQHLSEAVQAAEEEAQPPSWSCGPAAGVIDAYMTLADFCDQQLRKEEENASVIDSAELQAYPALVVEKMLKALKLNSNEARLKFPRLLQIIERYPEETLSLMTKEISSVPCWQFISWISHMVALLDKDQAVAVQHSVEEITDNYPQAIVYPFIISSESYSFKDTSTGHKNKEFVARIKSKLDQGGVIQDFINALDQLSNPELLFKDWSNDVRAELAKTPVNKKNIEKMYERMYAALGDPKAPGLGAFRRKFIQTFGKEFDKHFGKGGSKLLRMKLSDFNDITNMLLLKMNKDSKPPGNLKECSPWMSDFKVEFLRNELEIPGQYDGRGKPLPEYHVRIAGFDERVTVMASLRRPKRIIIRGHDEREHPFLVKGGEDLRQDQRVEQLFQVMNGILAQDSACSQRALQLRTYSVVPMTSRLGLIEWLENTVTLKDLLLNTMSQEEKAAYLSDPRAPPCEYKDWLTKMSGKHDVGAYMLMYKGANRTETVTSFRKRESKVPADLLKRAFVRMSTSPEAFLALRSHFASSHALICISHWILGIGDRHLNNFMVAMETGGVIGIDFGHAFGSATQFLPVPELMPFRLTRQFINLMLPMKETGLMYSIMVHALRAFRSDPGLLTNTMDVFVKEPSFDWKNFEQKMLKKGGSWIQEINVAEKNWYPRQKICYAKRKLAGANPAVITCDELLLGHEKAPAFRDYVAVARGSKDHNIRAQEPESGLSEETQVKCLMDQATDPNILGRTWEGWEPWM

- pIC50 (TXK): < 4.52
- pIC50 (TGFBR1): < 4.52
- pIC50 (EPHB2): < 4.52
- pIC50 (UniProt P78527): < 4.52
SMILES: CCc1cnn2c(NCc3ccc[n+]([O-])c3)cc(N3CCCC[C@H]3CCO)nc12 [dinaciclib]
